The values below come from patent US7888329B2, “Substituted aryl piperidinylalkynyladenosines as A2AR agonists” (PGxHealth, LLC, priority 2006, dated 2011).

Where two headings read alike, the source gives them in different places.

The Ki is the dissociation constant of the complex between target and ligand, obtained from inhibition or displacement.

One assay has as its target T1, human A3 AR (Homo sapiens, UniProt P0DMS8).
T1 construct: expressed in transfected cells; membranes
T1 sequence (P0DMS8 1-318): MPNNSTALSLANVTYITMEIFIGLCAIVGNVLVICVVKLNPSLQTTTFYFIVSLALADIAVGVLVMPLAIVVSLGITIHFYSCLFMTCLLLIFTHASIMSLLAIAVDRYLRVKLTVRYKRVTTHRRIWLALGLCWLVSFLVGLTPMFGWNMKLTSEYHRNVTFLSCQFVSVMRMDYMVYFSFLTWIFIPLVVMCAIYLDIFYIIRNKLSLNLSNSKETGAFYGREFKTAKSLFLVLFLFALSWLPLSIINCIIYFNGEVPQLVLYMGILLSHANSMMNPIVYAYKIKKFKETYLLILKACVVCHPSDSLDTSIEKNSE
Kind of assay: Radioligand competition binding with 125I-ABA, membranes of HEK 293 cells stably expressing the receptor. The following applies: Ki derived from IC50, class symbols. A digest of the protocol:
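Triplicate binding with 25 μg membrane protein and 0.5-1 nM agonist radioligand in HE buffer with 1 U/mL adenosine deaminase and 5 mM MgCl2, ±50 μM GTPγS, 3 h at room temperature, then filtration. Nonspecific binding with 50 μM NECA; Ki from IC50 corrected for radioligand and competitor depletion.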
(Displacement assays read how much labelled ligand stays bound in the presence of the test substance.)

In assay [1] the test system is Purified human neutrophils. Kind of assay: Luminol enhanced chemiluminescence (neutrophil oxidative activity), fMLP stimulated. The format is cell-based.
The target in assay [2] is T2, recombinant human A2A receptors (Homo sapiens, UniProt P29274).
T2 construct: expressed in transfected cells; host or cells: Sf9 insect cells infected with virus; membranes
The experiment in a line: Radioligand competition binding with 125I-APE or 125I-ZM241385, Sf9 cell membranes. The following applies: 125I-APE or 125I-ZM241385, Sf9 membranes; class symbols. The method in brief:
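Membranes (5 μg for A2A; 25 μg for A1) incubated with radioligand at room temperature, 3 h for agonists or 2 h for antagonists, in HE buffer with 1 U/mL adenosine deaminase and 5 mM MgCl2, ± 50 μM GTPγS. Assays ended by filtration; nonspecific binding defined with 50 μM NECA.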

In a further assay the target is T3, human A1 AR (Homo sapiens, UniProt P30542).
T3 construct: expressed in transfected cells; membranes
T3 sequence (P30542 1-326): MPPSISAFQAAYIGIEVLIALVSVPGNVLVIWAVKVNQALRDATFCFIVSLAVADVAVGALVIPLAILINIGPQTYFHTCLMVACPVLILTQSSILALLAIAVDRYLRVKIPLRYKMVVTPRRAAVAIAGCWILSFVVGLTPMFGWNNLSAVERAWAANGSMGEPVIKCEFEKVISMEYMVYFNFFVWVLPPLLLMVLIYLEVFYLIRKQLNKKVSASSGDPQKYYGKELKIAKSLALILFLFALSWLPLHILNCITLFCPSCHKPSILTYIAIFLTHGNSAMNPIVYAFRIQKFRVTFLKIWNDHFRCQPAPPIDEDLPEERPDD
The experiment in a line: Radioligand competition binding with 125I-ABA, membranes of CHO K1 cells stably expressing the receptor. The note with it: Ki derived from IC50, class symbols.

Setting [3] is: Homo sapiens, Neutrophil, read-out: Functional.
Where [4] appears, read: Homo sapiens, Neutrophil, read-out: Functional (nM).
Where [5] appears, read: EC50 of peak chemiluminescence, human PMN, rolipram 100 nM, fMLP, three donors, class symbols, read-out: Functional.

T2 sequence (P29274 whole entry): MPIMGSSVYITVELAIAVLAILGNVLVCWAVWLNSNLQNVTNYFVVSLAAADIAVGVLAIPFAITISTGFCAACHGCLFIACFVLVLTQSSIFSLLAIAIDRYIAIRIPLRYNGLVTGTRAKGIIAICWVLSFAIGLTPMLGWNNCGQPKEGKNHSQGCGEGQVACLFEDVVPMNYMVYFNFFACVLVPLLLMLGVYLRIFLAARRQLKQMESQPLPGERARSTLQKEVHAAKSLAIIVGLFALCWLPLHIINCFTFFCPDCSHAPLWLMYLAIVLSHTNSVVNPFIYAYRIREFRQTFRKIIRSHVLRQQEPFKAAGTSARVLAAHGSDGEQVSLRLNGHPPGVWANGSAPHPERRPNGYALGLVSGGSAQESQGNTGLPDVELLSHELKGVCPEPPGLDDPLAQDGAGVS

With `COc1ccccc1OC(=O)N1CCC(CC#Cc2nc(N)c3ncn([C@@H]4O[C@H](C(=O)NC5CC5)C(O)[C@@H]4O)c3n2)CC1` (some centres unmarked) [Compound 21, N-Cyclopropyl 2-{3-[1-(2-methoxyphenyloxycarbonyl)-4-piperidinyl]-1-propyn-1-yl}adenosine-5′-uronamide], the Ki on human A3 AR is under 100 nM; in assay [2], under 1 nM; on human A1 AR it was under 100 nM. Moreover, the EC50 in assay [1] (setting [3]) is under 10 nM.

For `Nc1nc(C#CCC2CCN(C(=O)OCCOCc3ccccc3)CC2)nc2c1ncn2[C@@H]1O[C@H](CO)C(O)[C@@H]1O` (some centres unmarked) [Compound 7, 2-{3-[1-((2-Benzyloxy)ethoxycarbonyl)piperidin-4-yl]propyn-1-yl}adenosine], the inhibition constant (Ki) at human A3 AR is under 100 nM; in assay [2] it was under 1 nM; on human A1 AR, under 100 nM. For the same compound, the EC50 in assay [1] (setting [3]) is under 10 nM.

In the case of `CCNC(=O)[C@H]1O[C@@H](n2cnc3c(N)nc(C#CCC4CCN(C(=O)Oc5ccc(F)cc5)CC4)nc32)[C@@H](O)C1O` (some centres unmarked) [Compound 24, N-Ethyl 2-{3-[1-(4-fluorophenyloxycarbonyl)-4-piperidinyl]-1-propyn-1-yl}adenosine-5′-uronamide], the inhibition constant (Ki) is under 10 nM on human A3 AR, under 1 nM in assay [2] and under 100 nM on human A1 AR. Also, the EC50 in assay [1] (setting [3]) was under 1 nM.

On to `Nc1nc(C#CCC2CCN(C(=O)Oc3ccc(Cl)c(Cl)c3)CC2)nc2c1ncn2[C@@H]1O[C@H](CO)C(O)[C@@H]1O` (some centres unmarked) [Compound 55, 2-{3-[1-((3,4-Chloro)phenoxycarbanoyl)piperidin-4-yl]propyn-1-yl}adenosine], for which the inhibition constant Ki is under 10 nM at human A3 AR, under 1 nM in assay [2] and under 100 nM at human A1 AR. For the same compound, in assay [1] (setting [3]), the EC50 is under 10 nM.

Take `Nc1nc(C#CCC2CCN(C(=O)Oc3ccc(F)c(F)c3)CC2)nc2c1ncn2[C@@H]1O[C@H](C(=O)NC2CC2)C(O)[C@@H]1O` (some centres unmarked) [Compound 52, N-Cyclopropyl 2-{3-[1-(3,4-fluorophenoxycarbonyl)-4-piperidinyl]-1-propyn-1-yl}adenosine-5′-uronamide]: the inhibition constant Ki was under 100 nM at human A3 AR, under 1 nM in assay [2] and under 100 nM at human A1 AR. The EC50 in assay [1] (setting [3]) is under 1 nM.

`Cc1ccc(OC(=O)N2CCC(CCCc3nc(N)c4ncn([C@@H]5O[C@H](C(=O)NC6CC6)C(O)[C@@H]5O)c4n3)CC2)cc1` (some centres unmarked) [Compound 39]: the Ki was over 100 nM on human A3 AR, under 100 nM in assay [2] and over 100 nM on human A1 AR. Besides, the EC50 in assay [1] (setting [4]) is under 100 nM.

On to `Cc1ccc(OC(=O)N2CCC(CC#Cc3nc(N)c4ncn([C@@H]5O[C@H](C(=O)NC6CC6)C(O)[C@@H]5O)c4n3)CC2)cc1` (some centres unmarked) [Compound 20, N-Cyclopropyl 2-{3-[1-(4-methylphenyloxycarbonyl)-4-piperidinyl]-1-propyn-1-yl}adenosine-5′-uronamide], for which the results for the Ki (on human A3 AR; in assay [2]; at human A1 AR) were over 100 nM, under 1 nM and under 100 nM, respectively. In assay [1] (setting [3]), the EC50 is under 1 nM.

Take `N=C(Oc1ccc(F)cc1)N1CCC(CC#Cc2nc(N)c3ncn([C@@H]4O[C@H](C(=O)NC5CC5)[C@@H](O)[C@H]4O)c3n2)CC1` [Compound 41, N-Cyclopropyl 2-{3-[1-(4-fluorophenyloxycarboxymidyl)-4-piperidinyl]-1-propyn-1-yl}adenosine-5′-uronamide]: the Ki on human A3 AR was over 100 nM; in assay [2], under 10 nM; at human A1 AR, under 100 nM. In addition, in assay [1] (setting [5]), the EC50 was under 10 nM.

On to `Nc1nc(C#CCC2CCN(C(=O)Oc3ccc(Cl)cc3)CC2)nc2c1ncn2[C@@H]1O[C@H](C(=O)NC2CC2)C(O)[C@@H]1O` (some centres unmarked) [Compound 17, N-Cyclopropyl 2-{3-[1-(4-chlorophenoxycarbonyl)-4-piperidinyl]-1-propyn-1-yl}adenosine-5′-uronamide], for which the Ki on human A3 AR was under 100 nM; in assay [2], under 1 nM; on human A1 AR it was under 100 nM. In assay [1] (setting [3]), the EC50 was under 1 nM.

As to `Cc1ccc(OC(=O)N2CCC(CC#Cc3nc(N)c4ncn([C@@H]5O[C@H](C(=O)NC6CC6)[C@@H](O)[C@H]5O)c4n3)CC2)cc1C` [Compound 47, N-Cyclopropyl 2-{3-[1-(3,4-dimethylphenoxycarbonyl)-4-piperidinyl]-1-propyn-1-yl}adenosine-5′-uronamide], the Ki at human A3 AR is under 100 nM; in assay [2] it was under 1 nM; at human A1 AR, under 100 nM. In addition, the EC50 in assay [1] (setting [5]) is under 1 nM.

In the case of `Nc1nc(C#CCC2CCN(C(=O)Nc3cccc(Cl)c3)CC2)nc2c1ncn2[C@@H]1O[C@H](CO)C(O)[C@@H]1O` (some centres unmarked) [Compound 46], the inhibition constant Ki at human A3 AR was under 100 nM; in assay [2], under 10 nM; on human A1 AR it was under 100 nM. Moreover, in assay [1] (setting [3]), the EC50 is under 100 nM.

Regarding `Nc1nc(C#CCC2CCN(C(=O)Oc3ccc(F)cc3)CC2)nc2c1ncn2[C@@H]1O[C@H](CO)[C@@H](O)[C@H]1O` [Compound 11, 2-{3-[1-((4-Fluorophenoxy)carbonyl)piperidin-4-yl]propyn-1-yl}adenosine], the figures for the inhibition constant (Ki) (on human A3 AR; in assay [2]; on human A1 AR) were under 100 nM, under 1 nM and under 100 nM, respectively. For the same compound, in assay [1] (setting [3]), the EC50 is under 10 nM.

On to `CCNC(=O)[C@H]1O[C@@H](n2cnc3c(N)nc(C#CCC4CCN(C(=O)Oc5ccc(F)c(F)c5)CC4)nc32)[C@@H](O)C1O` (some centres unmarked) [Compound 50, N-Ethyl 2-{3-[1-(3,4-difluorophenoxycarbonyl)-4-piperidinyl]-1-propyn-1-yl}adenosine-5′-uronamide], for which the Ki at human A3 AR was under 100 nM; in assay [2] it was under 1 nM; at human A1 AR, under 100 nM. Further, in assay [1] (setting [3]), the EC50 was under 1 nM.

For the compound `Nc1nc(C#CCC2CCN(C(=O)OCc3ccc([N+](=O)[O-])cc3)CC2)nc2c1ncn2[C@@H]1O[C@H](CO)[C@@H](O)[C@H]1O` [Compound 30, 2-{3-[1-((4-Nitro)benzyloxycarbanoyl)piperidin-4-yl]propyn-1-yl}adenosine], the Ki was under 100 nM at human A3 AR, under 10 nM in assay [2] and under 100 nM at human A1 AR. The EC50 in assay [1] (setting [3]) was under 10 nM.

Take `Nc1nc(C#CCC2CCN(C(=O)OCc3ccc([N+](=O)[O-])cc3)CC2)nc2c1ncn2[C@@H]1O[C@H](C(=O)NC2CC2)C(O)[C@@H]1O` (some centres unmarked) [Compound 18, N-Cyclopropyl 2-{3-[1-(4-nitrobenzloxycarbonyl)-4-piperidinyl]-1-propyn-1-yl}adenosine-5′-uronamide]: the values for the inhibitory constant (Ki) (on human A3 AR; in assay [2]; on human A1 AR) were under 100 nM, under 1 nM and under 100 nM, respectively. For the same compound, in assay [1] (setting [3]), the EC50 is under 1 nM.

For `Nc1nc(C#CCC2CCN(C(=O)Oc3ccc(Cl)cc3)CC2)nc2c1ncn2[C@@H]1O[C@H](CO)[C@@H](O)[C@H]1O` [Compound 27, 2-{3-[1-((4-Chloro)phenoxycarbanoyl)piperidin-4-yl]propyn-1-yl}adenosine], the Ki was under 100 nM on human A3 AR, under 1 nM in assay [2] and under 100 nM on human A1 AR. The EC50 in assay [1] (setting [3]) is under 10 nM.

As for “N-Cyclopropyl 2-{3-[1-((4-amino)benzyloxycarbanoyl)-4-piperidinyl]propyn-1-yl}adenosine-5′-uronamide [Compound 48]”, the inhibition constant (Ki) at human A3 AR is over 100 nM; in assay [2] it was under 10 nM; on human A1 AR, over 100 nM. Moreover, the EC50 in assay [1] (setting [5]) was under 10 nM.

On to `Nc1nc(C#CCC2CCN(C(=O)Oc3ccc(F)c(F)c3)CC2)nc2c1ncn2[C@@H]1O[C@H](CO)[C@@H](O)[C@H]1O` [Compound 54, 2-{3-[1-((3,4-Difluoro)phenoxycarbanoyl)piperidin-4-yl]propyn-1-yl}adenosine], for which the Ki is under 100 nM on human A3 AR, under 1 nM in assay [2] and under 100 nM at human A1 AR. Moreover, the EC50 in assay [1] (setting [3]) is under 10 nM.

`Nc1nc(C#CCC2CCN(C(=O)Oc3ccc([N+](=O)[O-])cc3)CC2)nc2c1ncn2[C@@H]1O[C@H](CO)[C@@H](O)[C@H]1O` [Compound 12, 2-{3-[1-((4-Nitrophenoxy)carbonyl)piperidin-4-yl]propyn-1-yl}adenosine]: the Ki was under 100 nM at human A3 AR, under 1 nM in assay [2] and under 100 nM at human A1 AR. Further, in assay [1] (setting [3]), the EC50 is under 1 nM.

Consider `Nc1nc(CCCC2CCN(C(=O)Oc3ccccc3)CC2)nc2c1ncn2[C@@H]1O[C@H](C(=O)NC2CC2)C(O)[C@@H]1O` (some centres unmarked) [Compound 38], for which the results for the Ki (on human A3 AR; in assay [2]; at human A1 AR) were over 100 nM, under 100 nM and over 100 nM, respectively. Besides, the EC50 in assay [1] (setting [4]) was under 100 nM.
